Tests used:
[1] = system: LplA; settings: 1:10, 1:100, 1:1000 mixtures of E2p:LAP1; 300 nM LplA, 30 minutes; PCR analysis
[2] = molecular target: T1, E. coli lipoic acid ligase (LplA) (Escherichia coli, UniProt P32099); settings: azide 7 ligation; cited from earlier work
[3] = system: LplA; settings: cited from earlier work
[4] = molecular target: T1, E. coli lipoic acid ligase (LplA); experiment: HPLC kinetics of LplA-catalyzed lipoylation; format: biochemical
[5] = system: LplA; settings: LAP2 fused to the C- rather than N-terminus of HP1; 50 nM LplA, 1 hour, 30 °C; HPLC
[6] = system: biotin ligase (BirA); settings: 12 hour reaction with 5 μM BirA; HPLC; data not shown
[7] = system: LplA
[8] = system: HeLa mammalian cells; experiment: Surface expression of LAP-CFP-TM fusions in mammalian cells; settings: CFP fluorescence

T1 sequence (P32099 whole entry): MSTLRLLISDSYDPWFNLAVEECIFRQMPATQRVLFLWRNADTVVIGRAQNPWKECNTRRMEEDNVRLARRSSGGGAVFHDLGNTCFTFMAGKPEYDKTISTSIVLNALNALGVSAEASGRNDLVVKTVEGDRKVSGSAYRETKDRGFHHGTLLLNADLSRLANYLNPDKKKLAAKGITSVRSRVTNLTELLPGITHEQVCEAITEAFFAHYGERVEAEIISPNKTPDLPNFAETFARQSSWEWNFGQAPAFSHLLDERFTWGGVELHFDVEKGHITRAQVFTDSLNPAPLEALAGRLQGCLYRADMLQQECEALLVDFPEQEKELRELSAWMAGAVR

Sequence | yeast remaining after one round of selection [1] | kcat [2] [s⁻¹] | ligation of lipoic acid, alkyl azide, aryl azide ([3]; LAP1 fusion proteins) | labeling at the cell surface ([3]; LAP1 fusions) | ligation of bromoalkanoic acid and coumarin ([3]; LAP1 fusions) | Km ([4]; read-out: Km (estimated), LAP1, estimated, measured by HPLC, data not shown) [µM] | conversion to lipoylated product, C-terminal HP1 fusion [5] | recognition by LplA by position in fusion ([3]; LAP2) | labeling in the cytosol / inside living cells [3] | biotinylation by BirA [6] | kcat/Km fold worse than natural lipoate and biotin acceptor proteins ([4]; LAP2 versus natural acceptor proteins) [fold] | kcat/Km fold better than LAP1 ([4]; LAP2 versus previous rationally-designed 22-amino acid LAP1) [fold] | kcat/Km ([4]; lipoylation of synthetic LAP2 peptide, 50 nM LplA, 750 μM lipoic acid, 2 mM ATP, 5 mM magnesium acetate in DPBS, 30 °C, LAP2 5.5-352 μM, HPLC, Michaelis-Menten) [M⁻¹ s⁻¹] | cell surface lipoylation compared with E2p ([7]; CFP-TM fusions in HEK cells, average signal ratios, Figure S5B) | cell surface lipoylation of fusion proteins ([7]; even at low expression levels) | cell surface expression [8]
DEVLVEIETDKAVLEVPGGEEE [LAP1] | could not be detected | 0.048 ± 0.001 | in vitro and in cell lysate, but not on the cell surface except under conditions of high LAP1-POI over-expression | difficult to label at the cell surface | could not be ligated to LAP1 fusions in any context | > 200 |  |  |  |  |  |  |  |  |  | 
GFEIDKVWYDLDA [LAP2] |  |  |  |  |  |  | decreased somewhat, but was still higher than all other LAP sequences at the N-terminus | can be recognized by LplA at the N-terminus, C-terminus, and internally | allows fluorophore tagging of intracellular proteins | no biotinylation | 8 | > 70 | 16500 | comparable even to E2p | could easily lipoylate cell surface LAP2 fusion proteins, even at low expression levels | clear cell surface expression
